# Patent publication US9434743B2, “Indazole derivatives” (TAKEDA PHARMACEUTICAL COMPANY LIMITED, priority 2012, dated 2016)
# Experiments:
# [1] = target: T1, human MetAP2 enzyme (Homo sapiens, UniProt P50579); assay: MetAP2 enzyme assay, enzyme complexed with manganese ions; conditions: MetAP2 Mn pIC50, MetAP2 enzyme complexed with manganese ions; Met-AMC substrate at Km
# Protocol: DNA encoding the full-length sequence of human MetAP2 enzyme is amplified by PCR and cloned into a pFastBac expression vector (Invitrogen). Recombinant baculovirus incorporating the MetAP2 construct is generated by transposition using the Bac-to-Bac system (Invitrogen). The expression of recombinant protein is carried out by infection of Spodoptera frugiperda Sf9 cells (Invitrogen) in 5 L Wave Bioreactors (Wave Biotech). Recombinant protein is isolated from cellular extracts by binding to an SP Hitrap Fast Flow or SP Sepharose (Sigma) column, and the protein is eluted using a NaCl gradient. Partially purified extracts of MetAP2 are further purified by an AKTA FPLC over a Superdex-200 column (GE). The purity of MetAP2 protein is determined on denaturing SDS-PAGE gel.
# The results for each well are expressed as percent inhibition and calculated using the equation:
# [2] = target: T1, human MetAP2 enzyme; assay: MetAP2 enzyme assay, enzyme complexed with cobalt ions; conditions: MetAP2 Co pIC50, MetAP2 enzyme complexed with cobalt ions; Met-AMC substrate at Km
# T1 sequence (P50579 whole entry): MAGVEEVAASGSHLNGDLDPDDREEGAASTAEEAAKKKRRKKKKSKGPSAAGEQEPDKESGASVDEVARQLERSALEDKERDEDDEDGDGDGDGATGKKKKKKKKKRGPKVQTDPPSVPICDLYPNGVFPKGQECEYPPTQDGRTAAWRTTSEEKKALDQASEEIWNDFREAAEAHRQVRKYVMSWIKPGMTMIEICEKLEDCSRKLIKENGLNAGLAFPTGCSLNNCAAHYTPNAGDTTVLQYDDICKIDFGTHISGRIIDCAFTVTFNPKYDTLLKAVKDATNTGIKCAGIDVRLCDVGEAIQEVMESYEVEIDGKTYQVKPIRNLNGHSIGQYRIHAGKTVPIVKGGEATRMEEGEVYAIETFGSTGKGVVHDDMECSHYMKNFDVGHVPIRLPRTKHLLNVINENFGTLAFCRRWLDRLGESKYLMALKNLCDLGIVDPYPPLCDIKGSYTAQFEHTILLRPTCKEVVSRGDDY
structure (smiles),measurement,setting,value
"CC(=O)Nc1ccc(-c2cc(C(F)(F)F)cc3[nH]ncc23)c(C)n1 [Example 178, N-(6-methyl-5-(6-(trifluoromethyl)-1H-indazol-4-yl)pyridin-2-yl)acetamide]",IC50,[1],7.94 nM
same,IC50,[2],31.6 nM
"CN1CCN(C(=O)c2cc(-c3cc(C(F)(F)F)cc4[nH]ncc34)c(=O)n(C)c2)CC1 [Example 375, 1-methyl-5-(4-methylpiperazine-1-carbonyl)-3-(6-(trifluoromethyl)-1H-indazol-4-yl)pyridin-2(1H)-one]",IC50,[1],10 nM
same,IC50,[2],126 nM
"COc1ncc(-c2cc(C(F)(F)F)cc3[nH]ncc23)cc1C(N)=O [Example 232, 2-methoxy-5-(6-(trifluoromethyl)-1H-indazol-4-yl)nicotinamide]",IC50,[1],6.31 nM
same,IC50,[2],63.1 nM
"N#CCOc1ccccc1-c1cc(C(F)(F)F)cc2[nH]ncc12 [Example 93, 2-(2-(6-(trifluoromethyl)-1H-indazol-4-yl)phenoxy)acetonitrile]",IC50,[1],10 nM
same,IC50,[2],50.1 nM
"FC(F)(F)c1cc(-c2csc(N3CCOCC3)n2)c2cn[nH]c2c1 [Example 60, 4-(4-(6-(trifluoromethyl)-1H-indazol-4-yl)thiazol-2-yl)morpholine]",IC50,[1],50.1 nM
same,IC50,[2],1000 nM
"Cn1cc(-c2cc(C(F)(F)F)cc3[nH]ncc23)c(=O)[nH]c1=O [Example 278, 1-methyl-5-(6-(trifluoromethyl)-1H-indazol-4-yl)pyrimidine-2,4(1H,3H)-dione]",IC50,[1],10 nM
same,IC50,[2],631 nM
"O=C(NCC(O)CO)c1c[nH]c(=O)c(-c2cc(C(F)(F)F)cc3[nH]ncc23)c1 (stereo not drawn) [Example 337, N-(2,3-dihydroxypropyl)-6-oxo-5-(6-(trifluoromethyl)-1H-indazol-4-yl)-1,6-dihydropyridine-3-carboxamide]",IC50,[1],15.8 nM
same,IC50,[2],398 nM
"C[C@H](O)CNc1ncc(-c2cc(C(F)(F)F)cc3[nH]ncc23)cn1 [Example 208, (S)-1-(5-(6-(trifluoromethyl)-1H-indazol-4-yl)pyrimidin-2-ylamino)propan-2-ol]",IC50,[1],6.31 nM
same,IC50,[2],79.4 nM
"CN(C)C(=O)c1cccc(-c2cc(C(F)(F)F)cc3[nH]ncc23)c1 [Example 121, N,N-dimethyl-3-(6-(trifluoromethyl)-1H-indazol-4-yl)benzamide]",IC50,[1],6.31 nM
same,IC50,[2],63.1 nM
"Cc1nc(N2CCOCC2)ccc1-c1cc(C(F)(F)F)cc2[nH]ncc12 [Example 399, 4-(6-methyl-5-(6-(trifluoromethyl)-1H-indazol-4-yl)pyridin-2-yl)morpholine]",IC50,[1],7.94 nM
same,IC50,[2],25.1 nM
"COc1ccc(C(=O)N2CCN(C)CC2)cc1-c1cc(C(F)(F)F)cc2[nH]ncc12 [Example 266, (4-methoxy-3-(6-(trifluoromethyl)-1H-indazol-4-yl)phenyl)(4-methylpiperazin-1-yl)methanone]",IC50,[1],12.6 nM
same,IC50,[2],63.1 nM
"CCCOc1ncccc1-c1cc(C(F)(F)F)cc2[nH]ncc12 [Example 134, 4-(2-propoxypyridin-3-yl)-6-(trifluoromethyl)-1H-indazole]",IC50,[1],25.1 nM
same,IC50,[2],100 nM
"FC(F)(F)c1cc(-c2cccc3cccnc23)c2cn[nH]c2c1 [Example 31, 8-(6-(trifluoromethyl)-1H-indazol-4-yl)quinoline]",IC50,[1],15.8 nM
same,IC50,[2],200 nM
"CN(C)S(=O)(=O)c1ccccc1-c1cc(C(F)(F)F)cc2[nH]ncc12 [Example 183, N,N-dimethyl-2-(6-(trifluoromethyl)-1H-indazol-4-yl)benzenesulfonamide]",IC50,[1],39.8 nM
same,IC50,[2],316 nM
"N#CCc1cccc(-c2cc(C(F)(F)F)cc3[nH]ncc23)c1 [Example 90, 2-(3-(6-(trifluoromethyl)-1H-indazol-4-yl)phenyl)acetonitrile]",IC50,[1],3.16 nM
same,IC50,[2],31.6 nM
"Cc1nn(CC2(C)COC2)c(C)c1-c1cc(C(F)(F)F)cc2[nH]ncc12 [Example 380, 4-(3,5-dimethyl-1-((3-methyloxetan-3-yl)methyl)-1H-pyrazol-4-yl)-6-(trifluoromethyl)-1H-indazole]",IC50,[1],25.1 nM
same,IC50,[2],398 nM
"CC(C)CNC(=O)c1cccc(-c2cc(C(F)(F)F)cc3[nH]ncc23)c1 [Example 28, N-isobutyl-3-(6-(trifluoromethyl)-1H-indazol-4-yl)benzamide]",IC50,[1],25.1 nM
same,IC50,[2],158 nM
"FC(F)(F)c1cc(-c2cccc(-c3cc[nH]n3)c2)c2cn[nH]c2c1 [Example 61, 4-(3-(1H-pyrazol-3-yl)phenyl)-6-(trifluoromethyl)-1H-indazole]",IC50,[1],39.8 nM
same,IC50,[2],158 nM
"CCN1C(=O)C(=O)c2cc(C)cc(-c3cc(C(F)(F)F)cc4[nH]ncc34)c21 [Example 199, 1-ethyl-5-methyl-7-(6-(trifluoromethyl)-1H-indazol-4-yl)indoline-2,3-dione]",IC50,[1],158 nM
same,IC50,[2],501 nM
"Cc1cc(=O)n(CC#N)cc1-c1cc(C(F)(F)F)cc2[nH]ncc12 [Example 408, 2-(4-methyl-2-oxo-5-(6-(trifluoromethyl)-1H-indazol-4-yl)pyridin-1(2H)-yl)acetonitrile]",IC50,[1],3.98 nM
same,IC50,[2],79.4 nM
"N#CCNC(=O)c1c[nH]c(=O)c(-c2cc(C(F)(F)F)cc3[nH]ncc23)c1 [Example 333, N-(cyanomethyl)-6-oxo-5-(6-(trifluoromethyl)-1H-indazol-4-yl)-1,6-dihydropyridine-3-carboxamide]",IC50,[1],12.6 nM
same,IC50,[2],251 nM
"FC(F)(F)c1cc(-c2cccnc2OC2CCCC2)c2cn[nH]c2c1 [Example 98, 4-(2-(cyclopentyloxy)pyridin-3-yl)-6-(trifluoromethyl)-1H-indazole]",IC50,[1],15.8 nM
same,IC50,[2],39.8 nM
"O=C1NCc2c1cccc2-c1cc(C(F)(F)F)cc2[nH]ncc12 [Example 141, 4-(6-(trifluoromethyl)-1H-indazol-4-yl)isoindolin-1-one]",IC50,[1],5.01 nM
same,IC50,[2],12.6 nM
"Cc1cnc(N)c(-c2cc(C(F)(F)F)cc3[nH]ncc23)c1 [Example 193, 5-methyl-3-(6-(trifluoromethyl)-1H-indazol-4-yl)pyridin-2-amine]",IC50,[1],6.31 nM
same,IC50,[2],63.1 nM
"Cc1nn2c(=O)[nH]ncc2c1-c1cc(C(F)(F)F)cc2[nH]ncc12 [Example 222, 2-methyl-3-(6-(trifluoromethyl)-1H-indazol-4-yl)pyrazolo[1,5-d][1,2,4]triazin-7(6H)-one]",IC50,[1],15.8 nM
same,IC50,[2],251 nM
"O=S(=O)(NCCO)c1ccc(-c2cc(C(F)(F)F)cc3[nH]ncc23)cc1 [Example 224, N-(2-hydroxyethyl)-4-(6-(trifluoromethyl)-1H-indazol-4-yl)benzenesulfonamide]",IC50,[1],2.51 nM
same,IC50,[2],39.8 nM
"CN1CCN(C(=O)c2cc(-c3cc(C(F)(F)F)cc4[nH]ncc34)cnc2F)CC1 [Example 289, (2-fluoro-5-(6-(trifluoromethyl)-1H-indazol-4-yl)pyridin-3-yl)(4-methylpiperazin-1-yl)methanone]",IC50,[1],6.31 nM
same,IC50,[2],100 nM
"Cc1c(-c2cc(C(F)(F)F)cc3[nH]ncc23)c(N)nn1C [Example 381, 1,5-dimethyl-4-(6-(trifluoromethyl)-1H-indazol-4-yl)-1H-pyrazol-3-amine]",IC50,[1],6.31 nM
same,IC50,[2],39.8 nM
"FC(F)(F)c1cc(-c2cnc3ccccn23)c2cn[nH]c2c1 [Example 149, 4-(imidazo[1,2-a]pyridin-3-yl)-6-(trifluoromethyl)-1H-indazole]",IC50,[1],63.1 nM
same,IC50,[2],501 nM
"FC(F)(F)c1cc(-c2ccc3ccncc3c2)c2cn[nH]c2c1 [Example 26, 7-(6-(trifluoromethyl)-1H-indazol-4-yl)isoquinoline]",IC50,[1],12.6 nM
same,IC50,[2],63.1 nM
"COc1ccc(-c2cc(C(F)(F)F)cc3[nH]ncc23)c2cccnc12 [Example 113, 8-methoxy-5-(6-(trifluoromethyl)-1H-indazol-4-yl)quinoline]",IC50,[1],7.94 nM
same,IC50,[2],20 nM
"Cc1ccc(N)c(-c2cc(C(F)(F)F)cc3[nH]ncc23)n1 [Example 188, 6-methyl-2-(6-(trifluoromethyl)-1H-indazol-4-yl)pyridin-3-amine]",IC50,[1],79.4 nM
same,IC50,[2],1580 nM
"Cc1ccc(C(=O)N2CCC(O)C2)cc1-c1cc(C(F)(F)F)cc2[nH]ncc12 (stereo not drawn) [Example 370, (3-hydroxypyrrolidin-1-yl)(4-methyl-3-(6-(trifluoromethyl)-1H-indazol-4-yl)phenyl)methanone]",IC50,[1],31.6 nM
same,IC50,[2],126 nM
"Cn1ccnc1-c1cc(C(F)(F)F)cc2[nH]ncc12 [Example 147, 4-(1-methyl-1H-imidazol-2-yl)-6-(trifluoromethyl)-1H-indazole]",IC50,[1],126 nM
same,IC50,[2],5010 nM
"FC(F)(F)c1cc(-c2cnc(N3CCOCC3)cn2)c2cn[nH]c2c1 [Example 94, 4-(5-(6-(trifluoromethyl)-1H-indazol-4-yl)pyrazin-2-yl)morpholine]",IC50,[1],3.16 nM
same,IC50,[2],63.1 nM
"Cc1ccc(-c2cc(C(F)(F)F)cc3[nH]ncc23)c(N)n1 [Example 211, 6-methyl-3-(6-(trifluoromethyl)-1H-indazol-4-yl)pyridin-2-amine]",IC50,[1],6.31 nM
same,IC50,[2],25.1 nM
"CN1CCOc2cc(-c3cc(C(F)(F)F)cc4[nH]ncc34)cnc21 [Example 122, 4-methyl-7-(6-(trifluoromethyl)-1H-indazol-4-yl)-3,4-dihydro-2H-pyrido[3,2-b][1,4]oxazine]",IC50,[1],12.6 nM
same,IC50,[2],39.8 nM
"FC(F)(F)c1cc(-c2cnc3[nH]c(C(F)(F)F)nc3c2)c2cn[nH]c2c1 [Example 242, 2-(trifluoromethyl)-6-(6-(trifluoromethyl)-1H-indazol-4-yl)-3H-imidazo[4,5-b]pyridine]",IC50,[1],6.31 nM
same,IC50,[2],50.1 nM
"FC(F)(F)c1cc(-c2cccc3ncccc23)c2cn[nH]c2c1 [Example 101, 5-(6-(trifluoromethyl)-1H-indazol-4-yl)quinoline]",IC50,[1],10 nM
same,IC50,[2],31.6 nM
